Patent US7635711B2, “Glucocorticoid mimetics, methods of making them, pharmaceutical compositions, and uses thereof” (Boehringer-Ingelheim Pharmaceuticals, Inc., priority 2004, dated 2009)

How the values were obtained:
glucocorticoid receptor = assay: one or more of the above assays (GR binding and GR cell assays for agonist/antagonist activity); assay type: cell-based; conditions: in one or more of the above assays
Description: Compounds found to bind to the glucocorticoid receptor may be evaluated for dissociation of transactivation and transrepression by assays cited in the Background of the Invention (C. M. Bamberger and H. M. Schulte, Eur. J. Clin. Invest., 2000, 30 (suppl. 3) 6-9) or by the assays described below.
B. Glucocorticoid Receptor Cell Assays
1. Induction of Aromatase in Fibroblasts (Cell Assay for Transactivation)
Dexamethasone, a synthetic ligand to the glucocorticoid receptor (GR), induces expression of aromatase in human foreskin fibroblast cells. The activity of aromatase is measured by the conversion of testosterone to estradiol in culture media.
Human foreskin fibroblast cells (ATCC Cat. No. CRL-2429, designation CCD112SK) are plated on 96 well plates at 50,000 cells per well 5 days before use, in Iscove's Modified Dulbecco's Media (GibcoBRL Life Technologies Cat No. 12440-053) supplemented with 10% charcoal filtered FBS (Clonetech Cat No. SH30068) and Gentamycin (GibcoBRL Life Technologies Cat. No. 15710-064). On the day of the experiment, the media in the wells is replaced with fresh media. Cells are treated with test compounds to final concentrations of 10^−5 M to 10^−8 M, and testosterone to a final concentration of 300 ng/mL. Each well has a total volume of 100 μL. Samples are made in duplicates. Control wells include: (a) wells that receive testosterone only, and (b) wells that receive testosterone plus 2 μM of dexamethasone to provide maximum induction of aromatase. Plates are incubated at 37° C. overnight (15 to 18 hours), and supernatants are harvested at the end of incubation. Estradiol in the supernatant is measured using ELISA kits for estradiol (made by ALPCO, obtained from American Laboratory Products Cat. No. 020-DR-2693) according to the manufacture's instruction. The amount of estradiol is inversely proportional to the ELISA signals in each well. The extent of aromatase induction by test compounds is expressed as a relative percentage to dexamethasone. EC50 values of test compounds are derived by non-linear curve fitting.
2. Inhibition of IL-6 Production in Fibroblasts (Cell Assay for Transrepression)
Human foreskin fibroblast cells produce IL-6 in response to stimulation by pro-inflammatory cytokine IL-1.
Human foreskin fibroblast cells (ATCC Cat. No. CRL-2429) are plated on 96 well plates at 5,000 cells per well the day before use, in Iscove's Modified Dulbecco's Media (GibcoBRL Life Technologies Cat. No. 12440-053) supplemented with 10% charcoal filtered FBS (Clonetech Cat. No. SH30068) and Gentamycin (GibcoBRL Life Technologies Cat. No. 15710-064). On the next day, media in the wells is replaced with fresh media. Cells are treated with IL-1 (rhIL-1α, R&D Systems Cat. No. 200-LA) to a final concentration of 1 ng/mL, and with test compounds to final concentrations of 10^−5 M to 10^−8 M, in a total volume of 200 μL per well. Samples are done in duplicates. […] Positive control wells receive IL-1 only and represent maximum (or 100%) amount of IL-6 production. Plates are incubated at 37° C. overnight (15 to 18 hours), and supernatants are harvested at the end of incubation. IL-6 levels in the supernatants are determined by the ELISA kits for IL-6 (MedSystems Diagnostics GmbH, Vienna, Austria, Cat. No. BMS213TEN) according to manufacture's instructions. The extent of inhibition of IL-6 by test compounds is expressed in percentage relative to positive controls. IC50 values of test compounds are derived by non-linear curve fitting.
Evaluation of agonist or antagonist activity of compounds binding to the glucocorticoid receptor may be determined by any of the assays.
3. Modulation of Tyrosine Aminotransferase (TAT) Induction in Rat Hepatoma Cells
Testing of compounds for agonist or antagonist activity in induction of tyrosine aminotransferase (TAT) in rat hepatoma cells. […]

Compound | activity as an agonist of the glucocorticoid receptor function (glucocorticoid receptor) | melting point [°C]
Cc1cc(C)c(S(=O)(=O)NC(Cc2c[nH]c3ccc(F)cc23)C(F)(F)F)c(C)c1 (stereo not shown) [2,4,6-Trimethyl-N-[2,2,2-trifluoro-1-(5-fluoro-1H-indol-3-ylmethyl)ethyl]benzenesulfonamide] | activity as an agonist | 
Cc1cc(C)c(S(=O)(=O)NC(Cc2c[nH]c3ccccc23)C(F)(F)F)c(C)c1 (stereo not shown) [2,4,6-Trimethyl-N-[2,2,2-trifluoro-1-(1H-indol-3-ylmethyl)ethyl]benzenesulfonamide] | activity as an agonist | 
Nc1cc(Cl)cc(Cl)c1S(=O)(=O)NC(Cc1c[nH]c2ccccc12)C(F)(F)F (stereo not shown) [2-Amino-4,6-dichloro-N-[2,2,2-trifluoro-1-(1H-indol-3-ylmethyl)ethyl]benzenesulfonamide] | activity as an agonist | 
O=S(=O)(NC(Cc1c[nH]c2ccccc12)C(F)(F)F)c1ccccc1 (stereo not shown) |  | 121 to 123
Cc1cc(C)c(S(=O)(=O)NC(Cc2c[nH]c3cc(F)ccc23)C(F)(F)F)c(C)c1 (stereo not shown) [2,4,6-Trimethyl-N-[2,2,2-trifluoro-1-(6-fluoro-1H-indol-3-ylmethyl)ethyl]benzenesulfonamide] | activity as an agonist | 
Cc1cc(C)c(S(=O)(=O)NC(Cc2c[nH]c3cccc(F)c23)C(F)(F)F)c(C)c1 (stereo not shown) [2,4,6-Trimethyl-N-[2,2,2-trifluoro-1-(4-fluoro-1H-indol-3-ylmethyl)ethyl]benzenesulfonamide] | activity as an agonist | 
Cc1cc(C)c(S(=O)(=O)NC(Cn2cc(C)c3ccccc32)C(F)(F)F)c(C)c1 (stereo not shown) [2,4,6-Trimethyl-N-[2,2,2-trifluoro-1-(3-methylindol-1-ylmethyl)ethyl]benzenesulfonamide] | activity as an agonist | 
Cc1cc(C)c(S(=O)(=O)NC(Cc2c[nH]c3ccccc23)C(F)(F)F)c(N)c1 (stereo not shown) [2-Amino-4,6-dimethyl-N-[2,2,2-trifluoro-1-(1H-indol-3-ylmethyl)ethyl]benzenesulfonamide] | activity as an agonist | 
Cc1cc(C)c(S(=O)(=O)NC(Cc2c[nH]c3c(C#N)cc(C)cc23)C(F)(F)F)c(C)c1 (stereo not shown) [N-[1-(7-Cyano-5-methyl-1H-indol-3-ylmethyl)-2,2,2-trifluoroethyl]-2,4,6-trimethylbenzenesulfonamide] | activity as an agonist | 
Cc1cc(C)c(S(=O)(=O)NC(Cc2c[nH]c3ccc(C)cc23)C(F)(F)F)c(C)c1 (stereo not shown) [2,4,6-Trimethyl-N-[2,2,2-trifluoro-1-(5-methyl-1H-indol-3-ylmethyl)ethyl]benzenesulfonamide] | activity as an agonist | 
Cc1ccc2[nH]cc(CC(NS(=O)(=O)c3c(N)cc(Cl)cc3Cl)C(F)(F)F)c2c1 (stereo not shown) [2-Amino-4,6-dichloro-N-[2,2,2-trifluoro-1-(5-methyl-1H-indol-3-ylmethyl)ethyl]benzenesulfonamide] | activity as an agonist | 
Cc1cc(C)c(S(=O)(=O)NC(Cc2c[nH]c3c(C#N)cccc23)C(F)(F)F)c(C)c1 (stereo not shown) [N-[1-(7-Cyano-1H-indol-3-ylmethyl)-2,2,2-trifluoroethyl]-2,4,6-trimethylbenzenesulfonamide] | activity as an agonist | 
Cc1cc(C)c(S(=O)(=O)NC(Cc2c[nH]c3c(F)cccc23)C(F)(F)F)c(C)c1 (stereo not shown) [2,4,6-Trimethyl-N-[2,2,2-trifluoro-1-(7-fluoro-1H-indol-3-ylmethyl)ethyl]benzenesulfonamide] | activity as an agonist | 
